{
  "source": "patent US20240156789A1",
  "about": "“ORAL FELINE FEED AND METHODS FOR CONTROLLING FLEA INFESTATIONS IN A FELINE” (priority 2021, published 2024)",
  "assay_type_in_all_cases": "in vivo",
  "key": {"Ctenocephalides felis [1]": {"tested_on": "Ctenocephalides felis", "experiment": "Example 6: efficacy of Mivorilaner in medicated feed in cats against fleas", "excerpt": "FIG. 1. A graph of the arithmetic mean efficacy for treatment Group 2 (vertical hash) and Group 3 (horizontal hash). Percent efficacy=[AM fleas CONTROL−AM fleas TREATED]/AM fleas CONTROL Efficacy measured at 2, 9, 16, 30, and 37 days after Initial Treatment.\nMethods: A pool of cats are to be preliminarily infested with ˜100 unfed adult C. felis fleas in order to produce cats that can suitably sustain a reliable infestation rate, defined as approximately 50% retention of live fleas at the end of a 48-hour period. The cats with the highest live flea counts are to be randomly assigned to a single control group (Group 1) and 2 medicated feed treatment groups (Groups 2 and 3) with 4 cats per group. The cats in groups 2 and 3 will receive Mivorilaner.\n(§1) The cats are to be housed individually during the study period and are to have ad libitum access to water.\nEach cat in a treatment group (Groups 2 and 3) is to receive a medicated daily feed from study days 0-29 according to TABLE 4.\nThe cats are to be fasted overnight prior to each daily treatment. The daily dose of Mivorilaner is to be mixed into a small portion (approximately 25% of the cat's daily dietary needs) of wet canned cat food. Approximately 4 hours after the medicated feed has been initially offered, the remaining medicated feed, if any, will be mixed with the 75% unmedicated daily feed for each cat. […]"}, "[2]": {"experiment": "Example 1: average plasma concentration of isoxazoline in cats, daily oral liquid dosing", "settings": "1.125 mg/kg daily oral", "experimental": "(§2) Each cat in the isoxazoline treatment group is to receive by mouth a liquid formulation of isoxazoline. The dosage of 1.125 mg/kg of isoxazoline is to be administered to the cats on each of days 0-29.\nUsing the same study method as described above, blood is to be drawn at 72, 168, 336, 504, 720 and 888 hours after the initial dose of isoxazoline is administered. The average concentration of isoxazoline in the blood can then be determined."}, "[3]": {"experiment": "Example 5: plasma levels of isoxazoline in cats given two medicated feed formulations", "settings": "1 mg/kg daily, days 0-14", "experimental": "Methods: A pool of cats are to be randomly assigned to a single control group and 2 treatment groups with 6 cats per group.\nas §1\nEach cat in a treatment group (test groups 2 and 3) is to receive one of two medicated daily feeds from study days 0-14. The medicated daily feed is to be offered to the cats for 1 hour on each of days 0-14 according to TABLE 3.\nBlood is to be drawn at day 0 (day of the first administration of medicated feed) and days 2, 4, 7, 10, 14, 21 and 30 after the initial dose of isoxazoline is administered. The average concentration of isoxazoline in the blood for each of the medicated feed formulations (treatment groups 2 and 3) can then be determined."}, "Ctenocephalides felis [4]": {"tested_on": "Ctenocephalides felis", "experiment": "Example 1: efficacy of isoxazoline liquid formulation given by mouth to cats against fleas", "settings": "1.125 mg/kg by mouth daily on days 0-29, liquid formulation, fed", "excerpt": "Methods: A pool of 14 cats are to be preliminarily infested with ˜100 unfed adult C. felis in order to identify cats that can suitably sustain a reliable infestation rate, defined as approximately 50% fleas being live at the end of a 48-hour period. The 12 cats with the highest live flea counts are to be selected for inclusion in the study. The cats are to be randomized and divided into a control group and a treatment group with 6 cats per group.\nThe cats are to be housed individually during the study period and are to be fed a commercial dry cat food ration with ad libitum access to water.\nas §2\nCats in the control group are not to receive isoxazoline or any other flea control treatment. Each cat in the treatment group is to be offered its daily ration (dry food) and the individual doses of liquid formulation are to be administered after the individual cat has eaten at least 25% of its total daily ration. After receiving the dose of isoxazoline, the cats are to be allowed to continue eating. This mimics incorporating the isoxazoline in feed. Each cat in the treatment group and the control group is to be experimentally infested with 100 unfed adult fleas on test days −1, 5, 12, 20 and 35. […]"}},
  "data": [
    {"smiles": "O=C(CNC(=O)c1sc(C2=NO[C@@](c3cc(Cl)c(F)c(Cl)c3)(C(F)(F)F)C2)c2c1CCC2)NCC(F)F", "note": "[mivorilaner, 3-[(5S)-5-(3,5-dichloro-4-fluorophenyl)-5-(trifluoromethyl)-4,5-dihydroisoxazol-3-yl]-N-[2-[(2,2-difluoroethyl)amino]-2-oxoethyl]-5,6-dihydro-4H-cyclopenta[c]thiophene-1-carboxamide]", "values": [
      {"measurement": "Percent efficacy (reduction in live and moribund flea counts)", "setting": "Ctenocephalides felis [1]; Group 2, 0.75 mg/kg daily in wet canned cat food days 0-29, by day 9", "result": 100, "unit": "%"},
      {"measurement": "Percent efficacy (reduction in live and moribund flea counts)", "setting": "Ctenocephalides felis [1]; Group 3, 1.5 mg/kg daily in wet canned cat food days 0-29, by day 9", "result": 100, "unit": "%"},
      {"measurement": "average plasma concentration", "setting": "[2]; at 72 hours", "result": "about 1011 ng/mL"},
      {"measurement": "average plasma concentration", "setting": "[2]; at 504 hours", "result": "about 4088 ng/mL"},
      {"measurement": "average plasma concentration", "setting": "[2]; at 888 hours, approximately 8 days after the final dose", "result": "about 3025 ng/mL"},
      {"measurement": "plasma concentrations", "setting": "[3]", "result": "consistent between treatment groups 2 and 3"},
      {"measurement": "reduction in live flea counts over the control group", "setting": "Ctenocephalides felis [4]", "result": "at least 95%"}
    ]}
  ]
}
